Test [1] has as its target T1, Cholecystokinin receptor type A (Homo sapiens, UniProt P32238).
T1 sequence (P32238 whole entry): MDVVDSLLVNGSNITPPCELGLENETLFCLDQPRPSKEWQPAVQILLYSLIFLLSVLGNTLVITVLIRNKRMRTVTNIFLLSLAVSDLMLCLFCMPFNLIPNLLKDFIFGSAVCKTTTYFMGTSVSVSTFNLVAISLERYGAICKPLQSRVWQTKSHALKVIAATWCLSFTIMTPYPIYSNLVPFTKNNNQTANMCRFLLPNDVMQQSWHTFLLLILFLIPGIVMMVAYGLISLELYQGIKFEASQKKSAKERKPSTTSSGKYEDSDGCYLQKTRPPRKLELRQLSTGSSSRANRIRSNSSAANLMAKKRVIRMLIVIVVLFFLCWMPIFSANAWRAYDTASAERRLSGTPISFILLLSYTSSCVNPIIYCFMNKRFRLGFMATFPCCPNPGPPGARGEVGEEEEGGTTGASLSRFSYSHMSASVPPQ

Test [2] deals with T2, 5-hydroxytryptamine receptor 1A (Homo sapiens, UniProt P08908).
T2 sequence (P08908 whole entry): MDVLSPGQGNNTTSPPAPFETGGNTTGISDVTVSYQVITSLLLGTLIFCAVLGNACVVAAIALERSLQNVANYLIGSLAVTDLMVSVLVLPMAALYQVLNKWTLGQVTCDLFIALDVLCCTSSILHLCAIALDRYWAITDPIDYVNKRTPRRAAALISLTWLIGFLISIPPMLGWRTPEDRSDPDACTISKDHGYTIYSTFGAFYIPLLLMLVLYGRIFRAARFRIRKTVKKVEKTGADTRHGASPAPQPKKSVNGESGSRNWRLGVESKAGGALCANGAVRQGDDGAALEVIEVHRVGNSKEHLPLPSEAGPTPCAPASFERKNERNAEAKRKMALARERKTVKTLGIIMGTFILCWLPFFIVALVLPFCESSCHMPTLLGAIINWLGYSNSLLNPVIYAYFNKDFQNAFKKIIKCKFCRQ
Type of test: functional, cell-based.

In test [3] the target is T3, 5-hydroxytryptamine receptor 3A (Homo sapiens, UniProt P46098).
T3 sequence (P46098 whole entry): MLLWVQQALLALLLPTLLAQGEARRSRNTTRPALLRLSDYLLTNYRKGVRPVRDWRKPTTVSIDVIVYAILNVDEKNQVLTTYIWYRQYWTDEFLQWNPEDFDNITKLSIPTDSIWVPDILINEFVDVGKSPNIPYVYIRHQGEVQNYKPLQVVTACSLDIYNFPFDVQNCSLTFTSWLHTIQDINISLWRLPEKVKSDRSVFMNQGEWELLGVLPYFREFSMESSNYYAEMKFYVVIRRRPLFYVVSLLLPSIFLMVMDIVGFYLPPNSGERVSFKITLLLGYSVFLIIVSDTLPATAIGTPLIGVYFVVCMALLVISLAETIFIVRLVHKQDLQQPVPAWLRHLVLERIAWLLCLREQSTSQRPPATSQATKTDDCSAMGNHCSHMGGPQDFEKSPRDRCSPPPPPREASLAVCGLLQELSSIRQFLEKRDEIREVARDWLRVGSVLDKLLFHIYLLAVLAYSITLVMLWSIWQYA
Type of test: functional.

Another test deals with Mu-type opioid receptor (Homo sapiens, UniProt P35372).
For test [4], the target named is Voltage-dependent L-type calcium channel subunit alpha-1C (Rattus norvegicus, UniProt P22002). Type of test: functional.
A further test deals with D(1A) dopamine receptor (Homo sapiens, UniProt P21728). Type of test: functional, cell-based.
The target of test [5] is T4, Alpha-2C adrenergic receptor (Homo sapiens, UniProt P18825).
T4 sequence (P18825 whole entry): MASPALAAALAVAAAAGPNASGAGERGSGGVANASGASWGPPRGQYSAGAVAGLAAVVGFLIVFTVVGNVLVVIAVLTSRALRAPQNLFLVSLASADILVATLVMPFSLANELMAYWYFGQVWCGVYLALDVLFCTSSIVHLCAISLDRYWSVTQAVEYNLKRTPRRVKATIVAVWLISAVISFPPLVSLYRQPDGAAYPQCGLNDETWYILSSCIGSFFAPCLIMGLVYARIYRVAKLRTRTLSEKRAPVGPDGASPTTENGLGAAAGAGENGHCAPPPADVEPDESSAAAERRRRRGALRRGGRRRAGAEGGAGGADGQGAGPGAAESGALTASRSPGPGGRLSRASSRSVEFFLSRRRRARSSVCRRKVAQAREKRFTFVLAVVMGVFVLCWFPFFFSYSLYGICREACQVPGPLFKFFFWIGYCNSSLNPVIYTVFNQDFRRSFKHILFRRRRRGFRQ
Type of test: functional.

Test [6] concerns the target T5, Type-1 angiotensin II receptor (Homo sapiens, UniProt P30556).
T5 sequence (P30556 whole entry): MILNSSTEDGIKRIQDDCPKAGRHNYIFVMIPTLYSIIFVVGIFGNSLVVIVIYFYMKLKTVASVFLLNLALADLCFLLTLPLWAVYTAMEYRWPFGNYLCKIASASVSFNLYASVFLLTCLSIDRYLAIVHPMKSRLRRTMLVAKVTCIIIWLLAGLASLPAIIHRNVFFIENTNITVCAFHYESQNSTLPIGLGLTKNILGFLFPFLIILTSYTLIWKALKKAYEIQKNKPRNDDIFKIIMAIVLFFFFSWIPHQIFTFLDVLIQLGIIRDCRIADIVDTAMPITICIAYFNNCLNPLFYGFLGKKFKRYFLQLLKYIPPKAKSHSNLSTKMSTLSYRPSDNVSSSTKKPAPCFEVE

The target in a further test is T6, Estrogen receptor (Homo sapiens, UniProt P03372).
T6 sequence (P03372 whole entry): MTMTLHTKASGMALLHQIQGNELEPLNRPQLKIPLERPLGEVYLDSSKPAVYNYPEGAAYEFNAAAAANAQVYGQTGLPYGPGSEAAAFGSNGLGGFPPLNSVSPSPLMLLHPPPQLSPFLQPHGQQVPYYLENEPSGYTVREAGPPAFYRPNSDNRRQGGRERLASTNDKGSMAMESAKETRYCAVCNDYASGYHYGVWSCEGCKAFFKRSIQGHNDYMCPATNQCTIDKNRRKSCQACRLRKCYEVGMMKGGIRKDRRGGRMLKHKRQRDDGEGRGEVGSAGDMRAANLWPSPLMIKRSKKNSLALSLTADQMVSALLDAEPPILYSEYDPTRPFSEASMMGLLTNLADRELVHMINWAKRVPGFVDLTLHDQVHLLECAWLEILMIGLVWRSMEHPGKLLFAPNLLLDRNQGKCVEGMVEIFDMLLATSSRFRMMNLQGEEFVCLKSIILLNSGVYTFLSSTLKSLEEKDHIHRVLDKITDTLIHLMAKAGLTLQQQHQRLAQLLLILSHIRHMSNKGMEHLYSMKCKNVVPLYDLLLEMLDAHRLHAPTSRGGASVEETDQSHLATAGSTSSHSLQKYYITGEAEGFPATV

A value given as a limit tells only on which side of the number the result lay.
Further: assay procedure not described here.

Chain of D(1A) dopamine receptor (P21728 whole entry): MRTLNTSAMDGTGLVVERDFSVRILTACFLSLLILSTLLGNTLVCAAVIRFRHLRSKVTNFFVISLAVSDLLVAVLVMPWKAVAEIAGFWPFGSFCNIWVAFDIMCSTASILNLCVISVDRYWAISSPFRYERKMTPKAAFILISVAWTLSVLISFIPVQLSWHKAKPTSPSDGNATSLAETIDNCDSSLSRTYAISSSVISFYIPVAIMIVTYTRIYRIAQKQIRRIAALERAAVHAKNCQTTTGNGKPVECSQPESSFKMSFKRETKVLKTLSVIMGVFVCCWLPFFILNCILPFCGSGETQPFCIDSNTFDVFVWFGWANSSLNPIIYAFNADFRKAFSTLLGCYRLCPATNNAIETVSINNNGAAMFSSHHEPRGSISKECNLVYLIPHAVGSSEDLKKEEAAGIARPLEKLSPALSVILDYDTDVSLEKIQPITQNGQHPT
Chain of Mu-type opioid receptor (P35372 whole entry): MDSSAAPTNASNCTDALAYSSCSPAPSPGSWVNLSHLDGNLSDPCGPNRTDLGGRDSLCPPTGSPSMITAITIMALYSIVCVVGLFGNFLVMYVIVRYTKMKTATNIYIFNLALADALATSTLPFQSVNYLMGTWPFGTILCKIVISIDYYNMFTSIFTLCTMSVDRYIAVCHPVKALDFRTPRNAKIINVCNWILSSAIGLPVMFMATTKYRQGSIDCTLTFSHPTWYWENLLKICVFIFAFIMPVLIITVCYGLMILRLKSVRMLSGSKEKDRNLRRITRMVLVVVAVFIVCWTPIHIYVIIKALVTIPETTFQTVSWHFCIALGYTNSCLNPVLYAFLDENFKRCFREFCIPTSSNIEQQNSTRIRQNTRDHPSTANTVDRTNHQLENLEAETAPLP
Chain of Voltage-dependent L-type calcium channel subunit alpha-1C (P22002 whole entry): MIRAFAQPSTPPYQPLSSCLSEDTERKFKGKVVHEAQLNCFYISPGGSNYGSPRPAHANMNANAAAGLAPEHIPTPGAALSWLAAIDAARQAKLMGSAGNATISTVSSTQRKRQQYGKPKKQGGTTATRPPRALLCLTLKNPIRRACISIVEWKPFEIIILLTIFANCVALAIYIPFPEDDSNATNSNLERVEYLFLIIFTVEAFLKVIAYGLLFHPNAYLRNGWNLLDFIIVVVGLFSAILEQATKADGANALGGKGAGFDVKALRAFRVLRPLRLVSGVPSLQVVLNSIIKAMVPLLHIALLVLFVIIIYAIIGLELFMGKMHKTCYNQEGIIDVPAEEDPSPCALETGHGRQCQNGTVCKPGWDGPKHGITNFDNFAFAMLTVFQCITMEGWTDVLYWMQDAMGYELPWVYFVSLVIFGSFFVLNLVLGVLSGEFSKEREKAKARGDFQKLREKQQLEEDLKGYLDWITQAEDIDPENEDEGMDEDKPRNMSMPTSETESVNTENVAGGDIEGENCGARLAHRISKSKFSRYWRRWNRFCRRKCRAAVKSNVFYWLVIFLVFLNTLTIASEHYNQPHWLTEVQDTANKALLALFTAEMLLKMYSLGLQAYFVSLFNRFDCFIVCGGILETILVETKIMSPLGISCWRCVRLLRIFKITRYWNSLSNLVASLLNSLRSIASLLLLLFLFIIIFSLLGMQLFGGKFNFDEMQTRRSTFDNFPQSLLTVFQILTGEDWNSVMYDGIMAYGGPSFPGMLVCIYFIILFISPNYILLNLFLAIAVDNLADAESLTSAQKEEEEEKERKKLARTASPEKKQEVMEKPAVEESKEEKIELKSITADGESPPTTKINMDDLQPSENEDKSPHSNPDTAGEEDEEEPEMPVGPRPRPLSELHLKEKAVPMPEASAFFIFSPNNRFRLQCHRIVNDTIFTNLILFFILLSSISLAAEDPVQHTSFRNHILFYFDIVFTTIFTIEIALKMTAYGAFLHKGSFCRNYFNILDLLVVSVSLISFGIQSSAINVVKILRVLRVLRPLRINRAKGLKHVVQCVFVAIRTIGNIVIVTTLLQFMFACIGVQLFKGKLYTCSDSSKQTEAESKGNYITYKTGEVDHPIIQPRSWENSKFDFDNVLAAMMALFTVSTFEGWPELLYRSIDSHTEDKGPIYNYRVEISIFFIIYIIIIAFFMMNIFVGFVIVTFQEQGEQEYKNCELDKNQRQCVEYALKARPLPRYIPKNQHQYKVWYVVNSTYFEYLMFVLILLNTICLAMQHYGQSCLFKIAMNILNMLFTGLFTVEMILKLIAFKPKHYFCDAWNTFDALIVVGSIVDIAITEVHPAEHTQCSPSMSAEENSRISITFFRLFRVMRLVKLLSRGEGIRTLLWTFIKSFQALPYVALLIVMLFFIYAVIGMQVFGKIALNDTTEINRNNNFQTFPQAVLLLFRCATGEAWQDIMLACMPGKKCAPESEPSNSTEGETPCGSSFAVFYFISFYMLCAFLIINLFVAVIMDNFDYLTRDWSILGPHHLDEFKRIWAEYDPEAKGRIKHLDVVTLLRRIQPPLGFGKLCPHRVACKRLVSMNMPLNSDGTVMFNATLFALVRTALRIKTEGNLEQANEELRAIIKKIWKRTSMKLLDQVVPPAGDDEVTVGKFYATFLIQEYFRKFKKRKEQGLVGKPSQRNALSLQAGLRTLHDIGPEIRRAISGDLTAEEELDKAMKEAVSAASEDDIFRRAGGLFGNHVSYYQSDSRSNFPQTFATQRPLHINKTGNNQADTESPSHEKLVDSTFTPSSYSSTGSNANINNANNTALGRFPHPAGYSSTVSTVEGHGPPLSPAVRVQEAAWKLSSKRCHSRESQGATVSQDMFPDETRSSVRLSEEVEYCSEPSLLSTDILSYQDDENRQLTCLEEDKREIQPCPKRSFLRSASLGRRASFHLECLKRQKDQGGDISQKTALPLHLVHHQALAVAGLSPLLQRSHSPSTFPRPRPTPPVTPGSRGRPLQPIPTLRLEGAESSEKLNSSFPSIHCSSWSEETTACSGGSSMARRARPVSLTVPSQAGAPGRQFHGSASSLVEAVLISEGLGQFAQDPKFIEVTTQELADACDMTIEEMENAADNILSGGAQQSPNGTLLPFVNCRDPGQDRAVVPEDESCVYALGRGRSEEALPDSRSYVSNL

Take `CC1=C(CC(=O)O)c2cc(F)ccc2/C1=C\c1ccc([S+](C)[O-])cc1` (configuration not stated): the AC50 in test [1] was greater than 30 µM; in test [2], greater than 10 µM; in test [3], greater than 30 µM; on Mu-type opioid receptor, greater than 30 µM; in test [4] it was greater than 10 µM; on D(1A) dopamine receptor it was greater than 10 µM. Besides, the half-maximal activity concentration (AC50) in test [5] was greater than 10 µM; in test [6] it was greater than 30 µM.
On to `COc1ccc(-n2nc(C(N)=O)c3c2C(=O)N(c2ccc(N4CCCCC4=O)cc2)CC3)cc1` [APIXABAN], for which the concentration at half-maximal activity (AC50) (in test [1]; in test [3]; at Mu-type opioid receptor; on D(1A) dopamine receptor; in [5]; in [6]) was greater than 30 µM each time.
`CC(NC(C)(C)C)C(=O)c1cccc(Cl)c1` (configuration not stated) [BUPROPION]: the AC50 in [1] is greater than 30 µM; in test [2], greater than 10 µM; in test [3], greater than 10 µM; on Mu-type opioid receptor, greater than 10 µM; in [4], greater than 10 µM; at D(1A) dopamine receptor, greater than 10 µM. Also, the AC50 is greater than 10 µM in test [5] and greater than 30 µM in test [6].
For `CC(=O)OCC1=C(C(=O)O)N2C(=O)[C@@H](NC(=O)CSc3ccncc3)[C@H]2SC1` [CEPHAPIRIN], the AC50 is greater than 10 µM in test [1]; greater than 10 µM in test [2]; greater than 30 µM in test [3]; greater than 30 µM on Mu-type opioid receptor; greater than 10 µM in test [4]; greater than 10 µM at D(1A) dopamine receptor. Moreover, the AC50 in [5] and in test [6] was greater than 10 µM in each case.
Regarding `CCCO[C@H]1[C@@H]([C@@H](COCc2ccc(Cl)cc2)OCc2ccc(Cl)cc2)OC(OCC)[C@@H]1O` (some centres not stated) [CLOBENOSIDE], the half-maximal activity concentration (AC50) on Estrogen receptor is greater than 10 µM; in [1], greater than 30 µM; in [2] it was greater than 30 µM; in test [3], greater than 30 µM; in [4], greater than 30 µM; at D(1A) dopamine receptor, greater than 30 µM. Moreover, the AC50 in test [5] and in test [6] was greater than 30 µM in each case.
Consider `CCCCCCOC(=O)NC(=N)c1ccc(NCc2nc3cc(C(=O)N(CCC(=O)OCC)c4ccccn4)ccc3n2C)cc1` [DABIGATRAN ETEXILATE], for which the concentration at half-maximal activity (AC50) was greater than 30 µM in [1]; greater than 30 µM in test [3]; greater than 30 µM at Mu-type opioid receptor; greater than 30 µM on D(1A) dopamine receptor; greater than 30 µM in [5]; 7.7 µM in [6].
For the compound `OCCN(CCO)c1nc(N2CCCCC2)c2nc(N(CCO)CCO)nc(N3CCCCC3)c2n1` [DIPYRIDAMOLE], the AC50 on Estrogen receptor is greater than 30 µM; in test [1] it was greater than 30 µM; in [2], greater than 10 µM; in test [3], greater than 30 µM; in test [4] it was greater than 30 µM; on D(1A) dopamine receptor, greater than 30 µM. Besides, the AC50 in [5] and in test [6] was greater than 30 µM in each case.
For the compound `CC(=O)OCC(=O)[C@@]1(O)CC[C@H]2[C@@H]3CCC4=CC(=O)CC[C@]4(C)[C@@]3(F)[C@@H](O)C[C@@]21C` [FLUDROCORTISONE ACETATE], the AC50 (on Estrogen receptor; in [1]; in test [2]; in test [3]; in test [4]; on D(1A) dopamine receptor) was greater than 30 µM throughout. The half-maximal activity concentration (AC50) in [5] and in test [6] was greater than 30 µM each time.
On to `Cc1ccc(S(=O)(=O)NC(=O)N[C@H]2[C@H]3CC[C@@](C)([C@H]2O)C3(C)C)cc1` [GLIBORNURIDE], for which the concentration at half-maximal activity (AC50) (on Estrogen receptor; in test [1]; in [2]; in [3]; in test [4]; at D(1A) dopamine receptor) was greater than 30 µM in each case. Further, the half-maximal activity concentration (AC50) in test [5] and in test [6] was greater than 30 µM each time.
For the compound `N=C(N)NC(=O)Cc1c(Cl)cccc1Cl` [GUANFACINE], the half-maximal activity concentration (AC50) (in [1]; in test [2]; in test [3]; on Mu-type opioid receptor; in test [4]; on D(1A) dopamine receptor) was greater than 30 µM each time. In addition, the concentration at half-maximal activity (AC50) in [6] is greater than 30 µM.
Regarding `COc1ccc2c3c1O[C@H]1C(=O)CC[C@H]4[C@@H](C2)N(C)CC[C@]314` [HYDROCODONE], the half-maximal activity concentration (AC50) on Estrogen receptor was greater than 30 µM; in test [1], greater than 30 µM; in [2], greater than 10 µM; in test [3] it was greater than 30 µM; in [4] it was greater than 10 µM; on D(1A) dopamine receptor, greater than 10 µM. Besides, the AC50 in test [5] is greater than 10 µM; in [6], greater than 30 µM.
On to `CCC(NC(C)C)C(O)c1ccc(O)c(O)c1` (configuration not stated) [ISOETHARINE], for which the half-maximal activity concentration (AC50) (in [1]; in test [2]; in test [3]; at Mu-type opioid receptor; in test [4]; at D(1A) dopamine receptor) was greater than 30 µM throughout. In addition, the AC50 in [5] and in test [6] was greater than 30 µM each time.
Take `Nc1ccc(S(=O)(=O)Nc2ncccn2)cc1` [SULFADIAZINE]: the AC50 in test [1] was greater than 10 µM; in [2], greater than 10 µM; in test [3], greater than 30 µM; at Mu-type opioid receptor it was greater than 30 µM; in test [4], greater than 10 µM; at D(1A) dopamine receptor, greater than 10 µM. In addition, the AC50 in [5] and in test [6] was greater than 10 µM throughout.
In the case of SITOSTEROLS, the concentration at half-maximal activity (AC50) (at Estrogen receptor; in test [1]; in test [2]; in test [3]; in test [4]; on D(1A) dopamine receptor) was greater than 30 µM each time. Besides, the AC50 in [5] and in test [6] was greater than 30 µM each time.

The AC50 is the concentration giving half of the maximal activity seen.

The values above are taken from ChEMBL document CHEMBL5291721, “A preclinical secondary pharmacology resource illuminates target-adverse drug reaction associations of marketed drugs” (Nat Commun, 2023).
